Test results taken from patent publication US10112899B2 (ViiV HEALTHCARE UK LIMITED, priority 2014, dated 2018).

System: HIV in the HTLV-1 transformed cell line MT-4
Experiment: organism not typed
Assay type: cell-based
Conditions: MT4, 96 h, MT-4 cells; luciferase/cell titer glo readout after 96 hours; 10 point dose response

Row | SMILES | IC50 [nM]
1 | Cc1ccc(-c2c(C)c3c(c(C)c2[C@H](OC(C)(C)C)C(=O)O)CN(C(=O)c2ccc(F)c(C)c2)C3)cc1 [Example 246, (S)-2-(tert-butoxy)-2-(2-(4-fluoro-3-methylbenzoyl)-4,7-dimethyl-6-(p-tolyl)isoindolin-5-yl)acetic acid] | 5
2 | Cc1ccc(-c2c(C)c3c(c(C)c2[C@H](OC(C)(C)C)C(=O)O)CN(C(=O)c2ccc(F)cc2F)C3)cc1 [Example 247, (S)-2-(tert-butoxy)-2-(2-(2,4-difluorobenzol)-4,7-dimethyl-6-(p-tolyl)isoindolin-5-yl)acetic acid] | 5
3 | COc1ccc(F)c(C(=O)N2Cc3c(C)c(-c4ccc(C)cc4)c([C@H](OC(C)(C)C)C(=O)O)c(C)c3C2)c1 [Example 248, (S)-2-(tert-butoxy)-2-(2-(2-fluoro-5-methoxybenzoyl)-4,7-dimethyl-6-(p-tolyl)isoindolin-5-yl)acetic acid] | 5
4 | COc1ccc(C)c(C(=O)N2Cc3c(C)c(-c4ccc(C)cc4)c([C@H](OC(C)(C)C)C(=O)O)c(C)c3C2)c1 [Example 249, (S)-2-(tert-butoxy)-2-(2-(5-methoxy-2-methylbenzoyl)-4,7-dimethyl-6-(p-tolyl)isoindolin-5-yl)acetic acid] | 5
5 | COc1ccc(C)cc1C(=O)N1Cc2c(C)c(-c3ccc(C)cc3)c([C@H](OC(C)(C)C)C(=O)O)c(C)c2C1 [Example 250, (S)-2-(tert-butoxy)-2-(2-(2-methoxy-5-methylbenzoyl)-4,7-dimethyl-6-(p-tolyl)isoindolin-5-yl)acetic acid] | 4
6 | COc1cc(C(=O)N2Cc3c(C)c(-c4ccc(C)cc4)c([C@H](OC(C)(C)C)C(=O)O)c(C)c3C2)ccc1F [Example 251, (S)-2-(tert-butoxy)-2-(2-(4-fluoro-3-methoxybenzoyl)-4,7-dimethyl-6-(p-tolyl)isoindolin-5-yl)acetic acid] | 3
7 | Cc1ccc(-c2c(C)c3c(c(C)c2[C@H](OC(C)(C)C)C(=O)O)CN(C(=O)c2ccc(F)c(Cl)c2)C3)cc1 [Example 252, (S)-2-(tert-butoxy)-2-(2-(3-chloro-4-fluorobenzoyl)-4,7-dimethyl-6-(p-tolyl)isoindolin-5-yl)acetic acid] | 4
8 | COc1cccc(C(=O)N2Cc3c(C)c(-c4ccc(C)cc4)c([C@H](OC(C)(C)C)C(=O)O)c(C)c3C2)c1F [Example 253, (S)-2-(tert-butoxy)-2-(2-(2-fluoro-3-methoxybenzoyl)-4,7-dimethyl-6-(p-tolyl)isoindolin-5-yl)acetic acid] | 12
9 | Cc1ccc(-c2c(C)c3c(c(C)c2[C@H](OC(C)(C)C)C(=O)O)CN(C(=O)c2ccc(F)cc2)C3)cc1 [Example 254, (S)-2-(tert-butoxy)-2-(2-(4-fluorobenzoyl)-4,7-dimethyl-6-(p-tolyl)isoindolin-5-yl)acetic acid] | 4
10 | Cc1ccc(-c2c(C)c3c(c(C)c2[C@H](OC(C)(C)C)C(=O)O)CN(C(=O)c2ccc4c(c2)OCCO4)C3)cc1 [Example 255, (S)-2-(tert-butoxy)-2-(2-(2,3-dihydrobenzo[b][1,4]dioxine-6-carbonyl)-4,7-dimethyl-6-(p-tolyl)isoindolin-5-yl)acetic acid] | 13
11 | Cc1ccc(-c2c(C)c3c(c(C)c2[C@H](OC(C)(C)C)C(=O)O)CN(C(=O)c2ccc4c(c2)B(O)OC4)C3)cc1 [Example 256, (S)-2-(tert-butoxy)-2-(2-(1-hydroxy-1,3-dihydrobenzo[c][1,2]oxaborole-6-carbonyl)-4,7-dimethyl-6-(p-tolyl)isoindolin-5-yl)acetic acid] | 740
12 | Cc1ccc(-c2c(C)c3c(c(C)c2[C@H](OC(C)(C)C)C(=O)O)CN(C(=O)c2cccc(B(O)O)c2)C3)cc1 [Example 257, (S)-2-(2-(3-boronobenzoyl)-4,7-dimethyl-6-(p-tolyl)isoindolin-5-yl)-2-(tert-butoxy)acetic acid] | 134
